The source of these data is patent US20240408053A1, “ENTERITIS-SUPPRESSING COMPOSITION” (KOBE GAKUIN EDUCATIONAL FOUNDATION, priority 2021, published 2024).

Data set [1] relates to ethanol-induced lesion in mouse colon. Nature of the data set: Microscopic evaluation of ethanol-induced lesion in mouse colon (HE, TB, MUC2 staining), 2 weeks. The format is in vivo, mice.
The next data set concerns Nrf2. The data set can be described thus: Nrf2 activation level in colon tissue extracts by ELISA. Type of data set: in vivo, mice. To be noted: group ES: 2.0% v/v ethanol diet + 2.5 mg sesaminol per day oral, 2 weeks; group E significantly reduced. On the procedure:
The Nrf2 transcription factor is a master regulator of cytoprotection and promotes HO-1 gene expression in intracellular response to oxidative stress. Thus, in terms of the decrease in the HO-1 expression level in group E, the activation level of the Nrf2 transcription factor was examined. The protein amounts in the colon tissue extracts of the groups were adjusted to be equal, and Nrf2 activation levels in the colon tissue extracts were determined by ELISA.
(In general: An ELISA detects its analyte on a solid surface through an enzyme-linked reagent.)

The test system of the next data set is TNF-α. The data set can be described thus: TNF-α expression in colon tissue (qRT-PCR, ELISA). The format is in vivo, mice. To be noted: group ES: 2.0% v/v ethanol diet + 2.5 mg sesaminol per day oral, 2 weeks, vs group E; higher than group C. The source says:
(§1) It has been reported that chronic consumption of an excessive amount of ethanol can induce inflammation associated with tumor formation in colon tissue. Therefore, in order to verify whether oral administration of sesaminol has a preventive effect on ethanol-induced colitis, the expression levels of inflammatory cytokines (TNF-α and IL-6) and chemokine (MCP-1) in the large intestinal lamina propria of the mice in the four groups (groups C, S, E, and ES) were examined by qRT-PCR and ELISA. The NF-κB activity in the mice in the four groups was also examined. NF-κB is a transcription factor that is involved in expression of genes regulating inflammation and is activated by exposure of immune cells to pro-inflammatory factors.
(§2) Total RNA was extracted from colon tissue samples. […]
(§3) A colon tissue sample (100 mg) was homogenized in 1 mL of an M-PER mammalian protein extraction reagent (Pierce) containing a diluent of a protease inhibitor cocktail (Nacalai Tesque, Inc.), and the resulting homogenate was centrifuged at 20,000× g at 4° C. for 15 minutes. The protein concentration of the supernatant was measured with a protein assay reagent (Bio-Rad Laboratories, Inc.), and equal amounts of proteins were used for analysis of the expression levels of TNF-α, IL-6, and MCP-1 by ELISA.
In general terms: Real-time PCR tracks product formation cycle by cycle.

The subject of a further data set is MCP-1. Nature of the data set: MCP-1 expression in colon tissue (qRT-PCR, ELISA). Type of data set: in vivo, mice. Conditions: group ES: 2.0% v/v ethanol diet + 2.5 mg sesaminol per day oral, 2 weeks, vs group E; higher than group C.
Source text: as §1, §2, §3

Data set [2] concerns ZO-1. Nature of the data set: Western blotting of ZO-1 in colon tissue. The format is in vivo, mice. To be noted: group ES: 2.0% v/v ethanol diet + 2.5 mg sesaminol per day oral, 2 weeks, vs group E; lower than group C. The source says:
Acetaldehyde, which accumulates during ethanol metabolism, is known to disrupt intestinal tight junctions (TJs) via dissociation of colonic epithelium TJ proteins (ZO-1, occludin, and claudin-1) from the cytoskeleton. […] Therefore, whether oral administration of sesaminol would affect ethanol-induced intestinal barrier dysfunction was examined by analyzing the expression levels of colonic epithelial TJ proteins and the plasma LPS level in the mice in the four groups (groups C, S, E, and ES).
WB was performed in the same manner as in Example 4 above. The following primary antibodies were used. • Anti-mouse zonula occludens-1 protein (ZO-1) rabbit polyclonal antibody • Anti-mouse occludin rabbit polyclonal antibody • Anti-mouse claudin-1 rabbit polyclonal antibody
(In western blotting, separated proteins are transferred to a membrane and probed.)

A short description of data set [3]: Change in body weight and general observation, 4 weeks. The format is in vivo. To be noted: groups S and ES (2.5 mg sesaminol per day, oral) vs groups C and E. On the procedure: Ten-week-old C57BL/6NCr male mice were divided into four groups (eight mice per group), i.e., group C, group S, group E, and group ES, and fed daily for 4 weeks in the same manner as in Example 1.
The body weights of the mice in the above four groups (group C, group S, group E, and group ES) were measured every week.

The subject of a further data set is secretory IgA. Nature of the data set: Amount of secretory IgA in colon tissue of mice. The format is in vivo. To be noted: group ES: 2.0% v/v ethanol diet + 2.5 mg sesaminol per day oral, 4 weeks, vs group E; level similar to group C. On the procedure:
The effect of oral administration of sesaminol on the amount of mucus secretion in mouse colon was examined by measuring the amount of fecal mucin of the mice in each group (groups C, E, S, and ES) and the amount of secretory immunoglobulin A (sIgA) in the colon tissue of the mice.
After liquid nitrogen treatment, the amount of sigA in each colon tissue stored at −80° C. was quantified according to the product protocol of a reagent kit for measuring secretory IgA (QuickDetect (trademark) Secretory IgA (Mouse) ELISA kit, produced by BioVision, Inc.). The resulting value was converted to the secretory IgA concentration (ng/ml) per 100 mg of the tissue and evaluated.

Data set [4] has as its system ZO-1. Nature of the data set: Immunofluorescence staining of ZO-1 in colon tissue, 4 weeks. Conditions: group ES: 2.0% v/v ethanol diet + 2.5 mg sesaminol per day oral, group E significant decrease. Type of data set: in vivo, mice. On the procedure:
(§4) Next, in order to verify the longer-term effect of oral administration of sesaminol on ethanol-induced intestinal tight junction (TJ) dysfunction and leaky gut, histological analysis of colonic epithelial TJ proteins (ZO-1, Occludin, and Claudin-1) and analysis of the plasma LPS level were performed using the mice in each group (groups C, S, E, and ES) described in Example 7. Histological analysis was performed by immunofluorescence staining with anti-ZO-1, anti-Occludin, and anti-Claudin-1 antibodies, followed by observation under a fluorescence microscope. The Plasma LPS level was measured according to the method described in Example 6.

Another data set has as its system occludin. Nature of the data set: Immunofluorescence staining of Occludin in colon tissue, 4 weeks. The format is in vivo, mice. Conditions: group ES: 2.0% v/v ethanol diet + 2.5 mg sesaminol per day oral, group E significant decrease. The method, then: as §4
For another data set, the system named is claudin-1. Nature of the data set: Immunofluorescence staining of Claudin-1 in colon tissue, 4 weeks. The format is in vivo, mice. To be noted: group ES: 2.0% v/v ethanol diet + 2.5 mg sesaminol per day oral, group E significant decrease. The method, then:
as §4

The nature of data set [5]: Amount of short-chain fatty acids in mouse feces (GC-FID). The format is in vivo, mice. Conditions: 4 weeks. The method, then:
Short-chain fatty acids are metabolites of intestinal bacteria. The amounts of short-chain fatty acids (acetic acid, propionic acid, and butyric acid) in feces of the mice in each group (groups C, E, S, and ES) were measured.
The amounts of short-chain fatty acids in the mouse feces were measured by outsourcing to TechnoSuruga Laboratory Co., Ltd.
Immediately after collection, mouse feces was treated with liquid nitrogen and stored at −80° C. While the fecal samples were frozen, an amount of 100 mg was crushed with beads and formed into a powder, and components extracted with ethyl acetate treatment were used as detection samples. For the measurement, a gas-chromatography-flame ionization detector system (Agilent 7890B GC, produced by Agilent technologies) was used, and the concentration of each short-chain fatty acid was calculated by comparison with the amount of standard substance.

Where [6] appears, read: group ES: 2.0% v/v ethanol diet + 2.5 mg sesaminol per day oral, vs group E.
Where [7] appears, read: group ES: 2.0% v/v ethanol diet + 2.5 mg sesaminol per day oral.

In the case of `Oc1cc2c(cc1C1OCC3C(c4ccc5c(c4)OCO5)OCC13)OCO2` (stereo not shown) [Sesaminol], in [1] (setting [6]), the “degree of lesion in colonic epithelium” value was “smaller degree of lesion compared with that observed in group E” and the “microscopic lesion score of colon tissue” value is given as “significantly lower than that of group E”. Moreover, in data set [1] (group S: 2.5 mg sesaminol per day oral, no ethanol), the “lesions in colonic epithelium” value was “No obvious lesions”. Besides, the Nrf2 activation level result in the data set on Nrf2 was “recovered to a level similar to that in group C”. For the same compound, the “expression level of TNF-α (mRNA by qRT-PCR, protein by ELISA)” value in the data set on TNF-α is “significantly lower than those in group E”. The “expression level of MCP-1 (mRNA by qRT-PCR, protein by ELISA)” value in the data set with MCP-1 is given as “significantly lower than those in group E”. The “expression level of ZO-1” value with ZO-1 [2] is recorded as “significantly higher than those in group E”. The “body-weight changes between the groups” value in data set [3] is given as “No significant differences”. In addition, in the data set on secretory IgA, the “amount of secretory IgA in colon tissue” value is recorded as “significantly higher than that in group E”. Also, the “protein level of ZO-1 in colon tissue (fluorescence microscope observation)” value in the data set with ZO-1 [4] is recorded as “improvement in all of those levels”. For the same compound, the “protein level of Occludin in colon tissue (fluorescence microscope observation)” value in the data set with occludin is “improvement in all of those levels”. The “protein level of Claudin-1 in colon tissue (fluorescence microscope observation)” value with claudin-1 is “improvement in all of those levels”. Further, in data set [5] (setting [7]), the “acetic acid in the feces” value is on record as “significant increase” and the “propionic acid in the feces” value is recorded as “significant increase”. Moreover, the “amount of butyric acid in the feces” value in [5] (group ES: 2.0% v/v ethanol diet + 2.5 mg sesaminol per day oral, group E significant decrease) is reported as “increase in the amount of butyric acid to the same level as that in group C”. Besides, the “amount of short-chain fatty acids (acetic acid, propionic acid, butyric acid) in the feces” value in data set [5] (group S: 2.5 mg sesaminol per day oral, no ethanol, vs all other groups) is reported as “significant increase in the amount of short-chain fatty acids in the feces compared with all the other groups”.
